Patent US20250122181A1, “BENZIMIDAZOLES AS MODULATORS OF IL-17” (Janssen Pharmaceutica NV, priority 2021, published 2025)

How the values were obtained:
[1] = target: IL-17A(FLAG-Tagged): IL-17RA(His-Tagged) (Homo sapiens, UniProt Q16552, K93Q); test: IL-17A(FLAG-Tagged): IL-17RA(His-Tagged) Binding Disruption Eu-HTRF Assay, Protocol 1; conditions: Protocol 1, FLAG tagged IL-17A 2.5 nM; simple average if tested more than once
From the text: An antibody directed against the FLAG tag of IL-17A (SEQ ID NO: 1) is labeled with the HTRF donor chromophore (Europium-cryptate). IL-17A is present as a dimer that is “locked into” this quaternary structure due to the formation of loop-spanning […] disulfide bridges. The construct of IL-17RA used in the assay excludes the […] portion of the receptor and is fused to a C-terminal 10×His tag (SEQ ID NO:2). An antibody directed against the His tag of the IL-17RA chimera is labeled with the HTRF acceptor chromophore (“D2”). The fluorescence-resonance energy transfer (FRET) depends on the vicinity of the donor chromophore to the acceptor, and interruption of the binding between the IL-17A and IL-17RA causes the reduction/loss of FRET. Therefore, this assay allows to evaluate the compound effect on the binding IL-17A and IL-17RA by monitoring the fluorescence intensity of donor vs acceptor. The assay was run using either Protocol 1 or Protocol 2 as described below.
Protocol 1. 40 nl of 2-fold serial diluted compound solution for total 22 dilution points is added into each well of a 1536-well, white, low-volume, non-binding plate (Greiner #782904), then 2 μl of FLAG tagged IL-17A at 2× final concentration (2.5 nM) in solution of PBS+0.01% Triton-X100 is added to each well. The assay plate is briefly centrifuged then incubated for 1 h at rt. A mixed solution is prepared containing 2×5 nM 10HIS×IL-17RA, 2×2.5 nM Eu-anti-FLAG (CISBIO), 2×5 nM D2-anti-HIS (CISBIO) in PBS+0.01% Triton-X100+200 mM Potassium Fluoride (Sigma 60238) and 2 μl of mix is added to each well of the assay plate. The plate is briefly centrifuged then incubated for 2 h at rt. The HTRF intensities at the wavelength of donor (620 nm) and acceptor (665 nm) are measured using BMG Pherastar. The ratio between intensities at two wavelengths is calculated and plotted against the compound concentration and the data is fitted to a one-site competition model to yield IC50 of the compound.

[2] = tested on: IL-17A-induced G-CSF production in human normal keratinocyte (NHK); test: NHK Assay: IL-17A-induced G-CSF production in human normal keratinocyte; format: cell-based; conditions: Homo sapiens, Keratinocyte, 24 h, IL-17A 5 ng/mL, simple average if tested more than once
Method in brief: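 IC50 derives from G-CSF in supernatants, quantified by HTRF from a standard curve, with CellTiter-Glo viability compared to DMSO control. Before a 24 h, 37°C culture of normal human keratinocytes at 3000–4000 cells/well, compound dilutions were preincubated 1 h at rt with human IL-17A (5 ng/mL final), with 0.2% DMSO and 5% FBS.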

UniProt Q16552, sequence (Q16552 with tags, fused parts or gaps K93Q): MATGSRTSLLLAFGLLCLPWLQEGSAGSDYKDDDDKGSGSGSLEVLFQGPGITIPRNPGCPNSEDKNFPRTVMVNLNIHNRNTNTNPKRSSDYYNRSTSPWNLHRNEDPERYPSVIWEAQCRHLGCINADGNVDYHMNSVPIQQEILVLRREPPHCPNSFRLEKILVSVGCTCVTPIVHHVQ

| IC50 [1] [µM] | Structure (SMILES) | IC50 [2] [µM] |
| --- | --- | --- |
| < 0.05 | Cc1nonc1C(=O)NC(c1nc2cc([C@@H](C3CC3)N3C[C@@H](C(F)(F)F)NC3=O)ccc2[nH]1)[C@@H](C)O[C@H](C)C(F)(F)F (single isomer, unassigned) [Example 10, N-((1R*,2R)-1-(5-((R)-Cyclopropyl((S)-2-oxo-4-(trifluoromethyl)imidazolidin-1-yl)methyl)-1H-benzo[d]imidazol-2-yl)-2-(((R)-1,1,1-trifluoropropan-2-yl)oxy)propyl)-4-methyl-1,2,5-oxadiazole-3-carboxamide] | < 0.05 |
| > 0.1 | [2H]C1([2H])[C@@H](C(F)(F)F)NC(=O)N1[C@@H](c1ccc2[nH]c([C@@H](NC(=O)c3nonc3C)[C@@H](C)O[C@@H](C)C(F)(F)F)nc2c1)C1CC1 (single isomer, unassigned) [Example 11] | > 0.1 |
| < 0.05 | Cc1nonc1C(=O)NC(c1nc2cc([C@@H](C3CC3)N3C[C@@H](C(F)(F)F)NC3=O)ccc2[nH]1)[C@@H](C)O[C@@H](C)C(F)(F)F (single isomer, unassigned) [Example 13, N-((1R*,2R)-1-(5-((R)-Cyclopropyl((S)-2-oxo-4-(trifluoromethyl)imidazolidin-1-yl)methyl)-1H-benzo[d]imidazol-2-yl)-2-(((S)-1,1,1-trifluoropropan-2-yl)oxy)propyl)-4-methyl-1,2,5-oxadiazole-3-carboxamide] | < 0.05 |
| < 0.05 | C[C@H](O[C@H](C)C(NC(=O)c1ccnn1C)c1nc2cc([C@@H](C3CC3)N3C[C@@H](C(F)(F)F)NC3=O)ccc2[nH]1)C(F)(F)F (single isomer, unassigned) [Example 14, N-((1R*,2R)-1-(5-((R)-Cyclopropyl((S)-2-oxo-4-(trifluoromethyl)imidazolidin-1-yl)methyl)-1H-benzo[d]imidazol-2-yl)-2-(((S)-1,1,1-trifluoropropan-2-yl)oxy)propyl)-1-methyl-1H-pyrazole-5-carboxamide] | < 0.05 |
| < 0.05 | CC(C)n1nccc1C(=O)NC(c1nc2cc([C@@H](C3CC3)N3C[C@@H](C(F)(F)F)NC3=O)ccc2[nH]1)[C@@H](C)O[C@@H](C)C(F)(F)F (single isomer, unassigned) [Example 15, N-((1R*,2R)-1-(5-((R)-Cyclopropyl((S)-2-oxo-4-(trifluoromethyl)imidazolidin-1-yl)methyl)-1H-benzo[d]imidazol-2-yl)-2-(((S)-1,1,1-trifluoropropan-2-yl)oxy)propyl)-1-isopropyl-1H-pyrazole-5-carboxamide] | < 0.05 |
| > 0.1 | CC(C)(OC[C@@H](NC(=O)c1nonc1C1CC1)c1nc2cc(CN3C[C@@H](C(F)(F)F)NC3=O)ccc2[nH]1)C(F)(F)F (single isomer, unassigned) [Example 16] | > 0.1 |
| < 0.05 | Cc1nonc1C(=O)NC(COC(C)(C)C(F)(F)F)c1nc2nc([C@@H](C3CC3)N3CC(F)(F)CNC3=O)ccc2[nH]1 (single isomer, unassigned) [Example 18, N—((R*)-1-(5-((R)-Cyclopropyl(5,5-difluoro-2-oxotetrahydropyrimidin-1(2H)-yl)methyl)-1H-imidazo[4,5-b]pyridin-2-yl)-2-((1,1,1-trifluoro-2-methylpropan-2-yl)oxy)ethyl)-4-methyl-1,2,5-oxadiazole-3-carboxamide] | 0.05 to 0.1 |
| < 0.05 | Cc1nonc1C(=O)NC(c1nc2nc([C@@H](C3CC3)N3CC(F)(F)CNC3=O)ccc2[nH]1)[C@@H](C)O[C@H](C)C(F)(F)F (single isomer, unassigned) [Example 19, N-((1R*,2R)-1-(5-((R)-Cyclopropyl(5,5-difluoro-2-oxotetrahydropyrimidin-1(2H)-yl)methyl)-1H-imidazo[4,5-b]pyridin-2-yl)-2-(((R)-1,1,1-trifluoropropan-2-yl)oxy)propyl)-4-methyl-1,2,5-oxadiazole-3-carboxamide] | 0.05 to 0.1 |
| < 0.05 | C[C@@H](O[C@H](C)C(F)(F)F)C(NC(=O)c1nonc1C1CC1)c1nc2nc([C@@H](C3CC3)N3CC(F)(F)CNC3=O)ccc2[nH]1 (single isomer, unassigned) [Example 20, 4-Cyclopropyl-N-((1R*,2R)-1-(5-((R)-cyclopropyl(5,5-difluoro-2-oxotetrahydropyrimidin-1(2H)-yl)methyl)-1H-imidazo[4,5-b]pyridin-2-yl)-2-(((R)-1,1,1-trifluoropropan-2-yl)oxy)propyl)-1,2,5-oxadiazole-3-carboxamide] | < 0.05 |
| < 0.05 | COC[C@H](c1ccc2[nH]c(C(NC(=O)c3nonc3C)[C@@H](C)O[C@H](C)C(F)(F)F)nc2n1)N1CC(F)(F)CNC1=O (single isomer, unassigned) [Example 21, N-((1R*,2R)-1-(5-((S)-1-(5,5-Difluoro-2-oxotetrahydropyrimidin-1(2H)-yl)-2-methoxyethyl)-1H-imidazo[4,5-b]pyridin-2-yl)-2-(((R)-1,1,1-trifluoropropan-2-yl)oxy)propyl)-4-methyl-1,2,5-oxadiazole-3-carboxamide] | < 0.05 |
| < 0.05 | COC[C@H](c1ccc2[nH]c(C(COC(C)(C)C(F)(F)F)NC(=O)c3nonc3C)nc2c1)N1C[C@@H](C(F)(F)F)NC1=O (single isomer, unassigned) [Example 31, N—((R*)-1-(5-((S)-2-Methoxy-1-((S)-2-oxo-4-(trifluoromethyl)imidazolidin-1-yl)ethyl)-1H-benzo[d]imidazol-2-yl)-2-((1,1,1-trifluoro-2-methylpropan-2-yl)oxy)ethyl)-4-methyl-1,2,5-oxadiazole-3-carboxamide] | < 0.05 |
| < 0.05 | COC[C@H](c1ccc2[nH]c(C(COC(C)(C)C(F)(F)F)NC(=O)c3nonc3C)nc2c1)N1CC(F)(F)CNC1=O (single isomer, unassigned) [Example 34, N—((R*)-1-(5-((S)-1-(5,5-Difluoro-2-oxotetrahydropyrimidin-1(2H)-yl)-2-methoxyethyl)-1H-benzo[d]imidazol-2-yl)-2-((1,1,1-trifluoro-2-methylpropan-2-yl)oxy)ethyl)-4-methyl-1,2,5-oxadiazole-3-carboxamide] | < 0.05 |
| < 0.05 | COC[C@H](c1ccc2[nH]c(C(COC(C)(C)C(F)(F)F)NC(=O)c3nonc3C3CC3)nc2c1)N1CC(F)(F)CNC1=O (single isomer, unassigned) [Example 35, 4-Cyclopropyl-N—((R*)-1-(5-((S)-1-(5,5-difluoro-2-oxotetrahydropyrimidin-1(2H)-yl)-2-methoxyethyl)-1H-benzo[d]imidazol-2-yl)-2-((1,1,1-trifluoro-2-methylpropan-2-yl)oxy)ethyl)-1,2,5-oxadiazole-3-carboxamide] | < 0.05 |
| < 0.05 | Cc1nonc1C(=O)NC(COC(C)(C)C(F)(F)F)c1nc2cc([C@@H](COC3CC3)N3C[C@@H](C(F)(F)F)NC3=O)ccc2[nH]1 (single isomer, unassigned) [Example 41, N—((R*)-1-(5-((S)-2-cyclopropoxy-1-((S)-2-oxo-4-(trifluoromethyl)imidazolidin-1-yl)ethyl)-1H-benzo[d]imidazol-2-yl)-2-((1,1,1-trifluoro-2-methylpropan-2-yl)oxy)ethyl)-4-methyl-1,2,5-oxadiazole-3-carboxamide] | < 0.05 |
| < 0.05 | COC[C@H](c1ccc2[nH]c(C(COC(C)(C)C(F)(F)F)NC(=O)c3nonc3C3CC3)nc2c1)N1C[C@@H](C(F)(F)F)NC1=O (single isomer, unassigned) [Example 47, 4-Cyclopropyl-N—((R*)-1-(5-((S)-2-methoxy-1-((S)-2-oxo-4-(trifluoromethyl)imidazolidin-1-yl)ethyl)-1H-benzo[d]imidazol-2-yl)-2-((1,1,1-trifluoro-2-methylpropan-2-yl)oxy)ethyl)-1,2,5-oxadiazole-3-carboxamide] | < 0.05 |
| < 0.05 | COCC(c1ccc2[nH]c([C@H](COC(C)(C)C(F)(F)F)NC(=O)c3nonc3C)nc2c1)N1CC(C)(C)NC1=O (single isomer, unassigned) [Example 48, N—((R)-1-(5-((R*)-1-(4,4-Dimethyl-2-oxoimidazolidin-1-yl)-2-methoxyethyl)-1H-benzo[d]imidazol-2-yl)-2-((1,1,1-trifluoro-2-methylpropan-2-yl)oxy)ethyl)-4-methyl-1,2,5-oxadiazole-3-carboxamide] | < 0.05 |
